Assay results taken from patent EP0538469A1, “SULFONANILIDE DERIVATIVE AND MEDICINE” (NIPPON SHINYAKU COMPANY, LIMITED, priority 1990, dated 1991).
Structures can show the parent of a compound that is named as a salt. Where two headings read alike, the source gives them in different places. Marks after values point to notes of the source that are not given here.

Tests used:
rats (SD strain, male) = assay: Acute toxicity, oral, rats; assay type: in vivo; conditions: observed two weeks
Procedure: (§1) Numbers of mice (ddY-strain, male, 6-8 weeks age) and rats (SD strain, male, 6-7 weeks age) in each group were 4 and 6, respectively.
(§2) The drug to be tested was orally administered at the dose of 10 ml/kg using an oral probe to the animals which were fasted since one day before (for 16-18 hours). After giving the drug, the animals were returned to the state where both feed and water were available and the general symptom and the dead cases, if any, were checked for two weeks. The drug was suspended in physiological saline solution containing 0.5% of methylcellulose (0.5% MC) and the suspension was given to the animals by oral route.

[1] = Acute toxicity, oral, rats; assay type: in vivo; conditions: rat, in vivo, SD rats, read-out: Rats LD₅₀
Procedure: as §1, §2

femoral artery = assay: Contraction of isolated femoral artery (Magnus vessel, cumulative concentration/response curves); assay type: cell-based, rabbits; conditions: Oryctolagus cuniculus, female rabbit femoral artery, contraction
Procedure: (§3) The experiment was conducted using female rabbits of 2 to 3.5 kg body weight.
(§4) The animals were killed by draining the blood out under anesthetizing with pentobarbital (30 mg/kg, by intravenous injection) and smooth muscle of urethra and femoral artery were excised. Each of the excised samples was placed in a Magnus vessel filled with a modified Krebs solution (at 37°C; under mixed gas) and both smooth muscle of urethra and femoral artery were suspended with 1 g load.
(§5) The drug to be tested was accumulated to contract the samples whereby the concentration/response curves were obtained wherefrom ED₅₀ (M) and pD₂ were calculated and the selectivity to urethra was determined.

mice (ddY-strain, male) = assay: Acute toxicity, oral, mice; assay type: in vivo; conditions: observed two weeks
Procedure: as §1, §2

male rabbits [2] = assay: Action to intra urethral pressure and blood pressure, administration to duodenum; assay type: in vivo
Procedure: (§6) The experiment was conducted using male rabbits of body weight of 1.4-3.1 kg under fasted condition. The animals were fixed at backs under uretrane(1.2g/kg s.c.) anesthesia, abdomen was subjected to a midline incision and bladder was exposed. In order to prevent the urine stored in the bladder on the intra urethral pressure, the urine in the bladder was compulsorily discharged out of the body. After that, a catheter was inserted into both ureters and the urine discharged from kidney was introduced outside.
(§7) The intra urethral pressure(IUP) at the urethra tract of about 0.5-1 cm distance from the neck of the bladder was measured using a microtip transducer transducer equipped with a baloon (filled with physiological saline solution) at the top end. Further, polyethylene tube was inserted into femoral artery to measure the blood pressure (BP).
Abdomen right above stomach was subjected to a midline incision and, after that, the drug to be tested suspended in 0.5% methyl cellulose (0.5% MC) was administered at the dose of 0.5ml/kg to the duodenum. […] The above administration to duodenum corresponded to oral administration as the administration into digestive organ in anethetized animals.

smooth muscle of urethra = assay: Contraction of isolated smooth muscle of urethra (Magnus vessel, cumulative concentration/response curves); assay type: cell-based, rabbits; conditions: for EC50: Oryctolagus cuniculus, female rabbit urethra smooth muscle, contraction
Procedure: as §3, §4, §5

male rabbits [3] = assay: Action to intra urethral pressure and blood pressure, intravenous administration; assay type: in vivo; conditions: i.v.; for Selectivity (B/A): BP(ED30%↑) / IUP(ED150%↑); for ED (30%) / ED (150%): Oryctolagus cuniculus, iv, anesthetized male rabbits; for ED (30%): dose increasing blood pressure to an extent of 30%, read-out: BP(B) [BP(ED30%↑)] (converted); for ED (150%): dose increasing intra urethral pressure to an extent of 150%, read-out: IUP(A) [IUP(ED150%↑)]
Procedure: as §6, §7
The drug to be tested was injected into the vein of ear every fifteen minutes and the maximum responses of the increasing action of intra urethral pressure tract and of the increasing action of blood pressure were measured at each dose.

[4] = 1 mg/kg i.d., 10 min after administration
[5] = 1 mg/kg i.d., 20 min after administration
[6] = 1 mg/kg i.d., 30 min after administration
[7] = 1 mg/kg i.d., 60 min after administration
[8] = 1 mg/kg i.d., 90 min after administration
[9] = 1 mg/kg i.d., 120 min after administration
[10] = 1 mg/kg i.d., 180 min after administration
[11] = 3 mg/kg i.d., 10 min after administration
[12] = 3 mg/kg i.d., 20 min after administration
[13] = 3 mg/kg i.d., 30 min after administration
[14] = 3 mg/kg i.d., 60 min after administration
[15] = 3 mg/kg i.d., 90 min after administration
[16] = 3 mg/kg i.d., 120 min after administration
[17] = 3 mg/kg i.d., 180 min after administration

CNCC(O)c1cccc(NS(C)(=O)=O)c1 (stereo not shown) [Amidephrine, reference compound]
Rats Dead/ Total (rats (SD strain, male); 5 mg/kg): 0 / 6
Rats Dead/ Total (rats (SD strain, male); 10 mg/kg): 3 / 6
Rats Dead/ Total (rats (SD strain, male); 20 mg/kg): 4 / 6
Rats Dead/ Total (rats (SD strain, male); 30 mg/kg): 6 / 6
LD50 at 336 h [1]: 12.4 mg/kg
EC50 (femoral artery; read-out: ED₅₀ Femoral Artery(B)): 1.96 µM
EC50 (femoral artery; read-out: pD₂ Femoral Artery(B)): 1.95 µM
Mice Dead/ Total (mice (ddY-strain, male); 1000 mg/kg): 0 / 4
Mice Dead/ Total (mice (ddY-strain, male); 3000 mg/kg): 3 / 4
Change(%) BP (male rabbits [2]; [4]): 2.4%
Change(%) BP (male rabbits [2]; [5]): -0.1%
Change(%) BP (male rabbits [2]; [6]): 2.2%
Change(%) BP (male rabbits [2]; [7]): 7.2* %
Change(%) BP (male rabbits [2]; [8]): 14.3** %
Change(%) BP (male rabbits [2]; [9]): 10.3* %
Change(%) BP (male rabbits [2]; [10]): 3.7** %
Change(%) BP (male rabbits [2]; [11]): 5.8%
Change(%) BP (male rabbits [2]; [12]): 3.7%
Change(%) BP (male rabbits [2]; [13]): 4.1%
Change(%) BP (male rabbits [2]; [14]): 20.7** %
Change(%) BP (male rabbits [2]; [15]): 34.4** %
Change(%) BP (male rabbits [2]; [16]): 39.1** %
Change(%) BP (male rabbits [2]; [17]): 31.1** %
Change(%) IUP (male rabbits [2]; [4]): 0.7%
Change(%) IUP (male rabbits [2]; [5]): 0.6%
Change(%) IUP (male rabbits [2]; [6]): 8.3%
Change(%) IUP (male rabbits [2]; [7]): 47.6** %
Change(%) IUP (male rabbits [2]; [8]): 56.8** %
Change(%) IUP (male rabbits [2]; [9]): 46.1* %
Change(%) IUP (male rabbits [2]; [10]): 32.1%
Change(%) IUP (male rabbits [2]; [11]): -4.5%
Change(%) IUP (male rabbits [2]; [12]): 15.9%
Change(%) IUP (male rabbits [2]; [13]): 47.1** %
Change(%) IUP (male rabbits [2]; [14]): 108.5** %
Change(%) IUP (male rabbits [2]; [15]): 107.8** %
Change(%) IUP (male rabbits [2]; [16]): 92.7** %
Change(%) IUP (male rabbits [2]; [17]): 92.2** %
Selectivity (B/A) (smooth muscle of urethra; ED₅₀ femoral artery / ED₅₀ urethra): 0.18
EC50 (smooth muscle of urethra; read-out: ED₅₀ Urethra(A)): 10.8 µM
EC50 (smooth muscle of urethra; read-out: pD₂ Urethra(A)): 10.7 µM

CNCC(O)c1cc(NS(C)(=O)=O)c(F)cc1F.Cl (racemic) [(71A), (±)-2',4'-Difluoro-5'-(1-hydroxy-2-methylaminoethyl)methanesulfonanilide hydrochloride]
Rats Dead/ Total (rats (SD strain, male); 300 mg/kg): 0 / 6
LD50 at 336 h [1]: > 300 mg/kg
Selectivity (B/A) (male rabbits [3]; hydrochloride): 2.1
ED (30%) (male rabbits [3]): 0.095 mg/kg
ED (150%) (male rabbits [3]): 0.045 mg/kg

CS(=O)(=O)Nc1cccc([C@@H](O)CN)c1.Cl [(24B), (R)-(-)-3'-(2-Amino-1-hydroxyethyl)-methanesulfonanilide hydrochloride, reference compound]
Rats Dead/ Total (rats (SD strain, male); 5 mg/kg): 0 / 6
Rats Dead/ Total (rats (SD strain, male); 10 mg/kg): 2 / 6
Rats Dead/ Total (rats (SD strain, male); 30 mg/kg): 4 / 6
Rats Dead/ Total (rats (SD strain, male); 100 mg/kg): 5 / 6
LD50 at 336 h [1]: 23.2 mg/kg
Selectivity (B/A) (male rabbits [3]; hydrochloride): 1.0
ED (30%) (male rabbits [3]): 0.019 mg/kg
ED (150%) (male rabbits [3]): 0.019 mg/kg
Mice Dead/ Total (mice (ddY-strain, male); 1000 mg/kg): 0 / 4

CS(=O)(=O)Nc1ccc(F)c(C(O)CN)c1 (racemic) [(49A), (±)-3'-(2-Amino-1-hydorxyethyl)-4'-fluoromethanesulfonanilide hydrochloride]
Rats Dead/ Total (rats (SD strain, male); 100 mg/kg): 0 / 6
Rats Dead/ Total (rats (SD strain, male); 500 mg/kg): 1 / 6
LD50 at 336 h [1]: > 500 mg/kg
Selectivity (B/A) (male rabbits [3]): 2.2
ED (30%) (male rabbits [3]): 0.044 mg/kg
ED (150%) (male rabbits [3]): 0.02 mg/kg
Mice Dead/ Total (mice (ddY-strain, male); 1000 mg/kg): 0 / 4

CS(=O)(=O)Nc1cc(F)cc(C(O)CN)c1.Cl (racemic) [(73A), (±)-3'-(2-Amino-1-hydroxyethyl)-5'-fluoromethanesulfonanilide hydrochloride]
Rats Dead/ Total (rats (SD strain, male); 100 mg/kg): 1 / 6
Rats Dead/ Total (rats (SD strain, male); 300 mg/kg): 5 / 6
LD50 at 336 h [1]: ~200 mg/kg
Selectivity (B/A) (male rabbits [3]; hydrochloride): 3.0
ED (30%) (male rabbits [3]): 0.081 mg/kg
ED (150%) (male rabbits [3]): 0.027 mg/kg

CS(=O)(=O)Nc1ccc(F)c([C@@H](O)CN)c1.O=C(O)C(O)C(O)C(=O)O [(49K), (R)-(-)-3'-(2-Amino-1-hydroxyethyl)-4'-fluoromethanesulfonanilide L-(+)-tartrate]
Rats Dead/ Total (rats (SD strain, male); 100 mg/kg): 0 / 6
Rats Dead/ Total (rats (SD strain, male); 300 mg/kg): 0 / 6
Rats Dead/ Total (rats (SD strain, male); 500 mg/kg): 2 / 6
Rats Dead/ Total (rats (SD strain, male); 1000 mg/kg): 1 / 6
LD50 at 336 h [1]: > 1000 mg/kg
Selectivity (B/A) (male rabbits [3]): 6.6
ED (30%) (male rabbits [3]): 0.059 mg/kg
ED (150%) (male rabbits [3]): 0.009 mg/kg
Mice Dead/ Total (mice (ddY-strain, male); 1000 mg/kg): 0 / 4
Mice Dead/ Total (mice (ddY-strain, male); 3000 mg/kg): 0 / 4

CS(=O)(=O)Nc1cc(C(O)CN)c(F)cc1F.Cl (racemic) [(63A), (±)-5'-(2-Amino-1-hydroxyethyl)-2',4'-difluoromethanesulfonanilide hydrochloride]
Rats Dead/ Total (rats (SD strain, male); 300 mg/kg): 0 / 6
LD50 at 336 h [1]: > 300 mg/kg
Selectivity (B/A) (male rabbits [3]; hydrochloride): 2.9
ED (30%) (male rabbits [3]): 0.19 mg/kg
ED (150%) (male rabbits [3]): 0.065 mg/kg
